For 24 compounds, DC50 and Dmax results are on record in patent publication US20250215012A1, “IKZF2 DEGRADERS AND USES THEREOF” (REGENTS OF THE UNIVERSITY OF MICHIGAN, priority 2022, published 2025).

The target of this assay is IKZF2 (Homo sapiens (Human), UniProt Q96SW2+Q9UKS7). The experiment in a line: IKZF2 HiBiT Assay (Jurkat-IKZF2-HiBiT cell line). The note with it: Jurkat-IKZF2-HiBiT cells, 24 hours; for DC50: read-out: HiBit assay degradation analysis DC50; for Dmax: read-out: HiBit assay degradation analysis Dmax. It is filed as cell-based. The essentials:
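IKZF2 degradation was assessed as HiBiT luminescence in Jurkat-IKZF2-HiBiT cells, using lytic detection after 24 h of compound treatment at 37 °C, 5% CO2.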
In general terms: With HiBiT, luminescence reflects the tagged protein that the partner subunit can reach.

Sequence of IKZF2 (Q9UKS7 whole entry): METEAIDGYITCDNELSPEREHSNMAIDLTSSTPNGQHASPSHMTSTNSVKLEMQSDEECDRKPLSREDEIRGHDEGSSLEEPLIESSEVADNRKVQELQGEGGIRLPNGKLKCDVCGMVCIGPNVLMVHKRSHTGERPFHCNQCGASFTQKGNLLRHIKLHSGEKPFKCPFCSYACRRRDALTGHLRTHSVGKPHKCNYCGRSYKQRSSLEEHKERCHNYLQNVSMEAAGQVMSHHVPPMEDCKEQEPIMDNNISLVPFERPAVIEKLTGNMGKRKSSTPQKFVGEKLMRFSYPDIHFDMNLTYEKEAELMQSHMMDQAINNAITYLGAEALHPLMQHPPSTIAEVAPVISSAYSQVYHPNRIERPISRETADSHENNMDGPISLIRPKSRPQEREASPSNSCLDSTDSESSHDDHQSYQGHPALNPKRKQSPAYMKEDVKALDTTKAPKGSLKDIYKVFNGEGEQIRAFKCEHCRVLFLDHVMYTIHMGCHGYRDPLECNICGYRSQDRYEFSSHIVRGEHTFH
Sequence of IKZF2 (Q96SW2 whole entry): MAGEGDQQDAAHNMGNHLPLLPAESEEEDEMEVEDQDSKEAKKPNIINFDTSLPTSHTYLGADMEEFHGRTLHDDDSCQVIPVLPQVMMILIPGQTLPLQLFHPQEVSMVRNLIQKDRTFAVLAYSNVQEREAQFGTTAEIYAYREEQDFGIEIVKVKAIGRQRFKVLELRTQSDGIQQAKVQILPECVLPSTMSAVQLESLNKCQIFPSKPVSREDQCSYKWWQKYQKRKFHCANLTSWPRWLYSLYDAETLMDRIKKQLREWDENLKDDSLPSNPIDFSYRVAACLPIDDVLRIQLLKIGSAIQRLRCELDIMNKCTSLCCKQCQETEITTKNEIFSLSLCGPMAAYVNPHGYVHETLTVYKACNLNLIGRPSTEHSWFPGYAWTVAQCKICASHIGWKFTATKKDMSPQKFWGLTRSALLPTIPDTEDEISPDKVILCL
Sequence of IKZF2 (Q16531 whole entry partner): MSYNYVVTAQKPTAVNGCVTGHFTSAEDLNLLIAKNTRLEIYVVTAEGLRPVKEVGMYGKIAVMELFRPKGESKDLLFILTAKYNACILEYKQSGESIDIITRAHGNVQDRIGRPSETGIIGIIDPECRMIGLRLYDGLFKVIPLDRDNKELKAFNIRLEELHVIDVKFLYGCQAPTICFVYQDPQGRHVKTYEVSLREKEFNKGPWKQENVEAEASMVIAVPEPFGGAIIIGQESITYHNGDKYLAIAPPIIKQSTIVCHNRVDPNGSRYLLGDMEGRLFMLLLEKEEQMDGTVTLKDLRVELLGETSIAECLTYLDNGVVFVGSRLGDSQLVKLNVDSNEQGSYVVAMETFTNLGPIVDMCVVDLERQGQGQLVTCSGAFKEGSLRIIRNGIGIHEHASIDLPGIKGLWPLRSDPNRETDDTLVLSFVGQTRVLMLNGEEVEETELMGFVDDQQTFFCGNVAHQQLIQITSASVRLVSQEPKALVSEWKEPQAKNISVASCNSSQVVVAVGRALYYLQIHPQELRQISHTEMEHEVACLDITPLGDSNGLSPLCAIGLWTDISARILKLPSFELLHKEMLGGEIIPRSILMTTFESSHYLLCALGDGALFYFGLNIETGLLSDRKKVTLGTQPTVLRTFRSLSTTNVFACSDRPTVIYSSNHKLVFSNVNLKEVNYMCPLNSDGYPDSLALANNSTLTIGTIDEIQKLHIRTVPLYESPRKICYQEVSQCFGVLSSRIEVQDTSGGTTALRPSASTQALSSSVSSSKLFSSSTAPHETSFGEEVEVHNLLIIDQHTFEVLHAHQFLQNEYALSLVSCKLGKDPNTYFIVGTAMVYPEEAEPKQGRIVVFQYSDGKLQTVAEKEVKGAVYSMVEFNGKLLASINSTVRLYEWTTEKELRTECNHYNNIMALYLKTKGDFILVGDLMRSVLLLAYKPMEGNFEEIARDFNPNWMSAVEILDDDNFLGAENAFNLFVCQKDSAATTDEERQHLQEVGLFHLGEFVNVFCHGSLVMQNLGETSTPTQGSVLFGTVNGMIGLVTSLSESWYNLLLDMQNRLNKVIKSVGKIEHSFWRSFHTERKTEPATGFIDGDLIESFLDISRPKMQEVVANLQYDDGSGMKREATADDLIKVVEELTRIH

As for `O=C1CCC(N2Cc3c(ccc4c3OCC43CCN(Cc4cc(C(F)(F)F)cc5[nH]ccc45)CC3)C2=O)C(=O)N1` (stereo not drawn) [Compound A114, 3-(6-oxo-1′-((6-(trifluoromethyl)-1H-indol-4-yl)methyl)-6,8-dihydro-2H,7H-spiro[furo[2,3-e]isoindole-3,4′-piperidin]-7-yl)piperidine-2,6-dione], the 50% degradation concentration (DC50) lay within 50 to 200 nM and the Dmax was 60 to 80%.
Regarding `O=C1CCC(N2Cc3c(ccc4c3OCC43CCN(Cc4cccc5ccoc45)CC3)C2=O)C(=O)N1` (stereo not drawn) [Compound A115, 3-(1′-(benzofuran-7-ylmethyl)-6-oxo-6,8-dihydro-2H,7H-spiro[furo[2,3-e]isoindole-3,4′-piperidin]-7-yl)piperidine-2,6-dione], the 50% degradation concentration (DC50) was in the range of 50 to 200 nM and the Dmax was in the range of 60 to 80%.
Consider `O=C1CCC(N2Cc3c(ccc4c3OCC43CCN(Cc4cc(F)cc5ccoc45)CC3)C2=O)C(=O)N1` (stereo not drawn) [Compound A117, 3-(1′-((5-fluorobenzofuran-7-yl)methyl)-6-oxo-6,8-dihydro-2H,7H-spiro[furo[2,3-e]isoindole-3,4′-piperidin]-7-yl)piperidine-2,6-dione], for which the DC50 lay in the range of 200 to 500 nM and the Dmax was 40 to 60%.
The like results for `O=C1CCC(N2Cc3c(ccc4c3OCC43CCN(Cc4ccc(F)c5ccoc45)CC3)C2=O)C(=O)N1` (stereo not drawn) [Compound A118, 3-(1′-((4-fluorobenzofuran-7-yl)methyl)-6-oxo-6,8-dihydro-2H,7H-spiro[furo[2,3-e]isoindole-3,4′-piperidin]-7-yl)piperidine-2,6-dione] were, in that order, more than 500 nM and 40 to 60%.
Turning to `O=C1CCC(N2Cc3c(ccc4c3OCC43CCN(Cc4cccc5occc45)CC3)C2=O)C(=O)N1` (stereo not drawn) [Compound A119, 3-(1′-(benzofuran-4-ylmethyl)-6-oxo-6,8-dihydro-2H,7H-spiro[furo[2,3-e]isoindole-3,4′-piperidin]-7-yl)piperidine-2,6-dione], the DC50 is less than 50 nM and the maximal degradation (Dmax) is 60 to 80%.
The like results for `O=C1CCC(N2Cc3c(ccc4c3OCC43CCN(Cc4ccc5occc5c4)CC3)C2=O)C(=O)N1` (stereo not drawn) [Compound A120, 3-(1′-(benzofuran-5-ylmethyl)-6-oxo-6,8-dihydro-2H,7H-spiro[furo[2,3-e]isoindole-3,4′-piperidin]-7-yl)piperidine-2,6-dione] were, in that order, less than 50 nM and 60 to 80%.
For `Cc1cc2c(CN3CCC4(CC3)COc3c4ccc4c3CN(C3CCC(=O)NC3=O)C4=O)cccc2[nH]1` (stereo not drawn) [Compound A121, 3-(1′-((2-methyl-1H-indol-4-yl)methyl)-6-oxo-6,8-dihydro-2H,7H-spiro[furo[2,3-e]isoindole-3,4′-piperidin]-7-yl)piperidine-2,6-dione], in that order: less than 50 nM and 60 to 80%.
Turning to `O=C1CCC(N2Cc3c(ccc4c3OCC43CCN(CC4CCN(c5ccccc5)CC4)CC3)C2=O)C(=O)N1` (stereo not drawn) [Compound A123, 3-(6-oxo-1′-((1-phenylpiperidin-4-yl)methyl)-6,8-dihydro-2H,7H-spiro[furo[2,3-e]isoindole-3,4′-piperidin]-7-yl)piperidine-2,6-dione], the DC50 is more than 500 nM and the Dmax lay within 40 to 60%.
As for `O=C1CCC(N2Cc3c(ccc4c3OCC43CCN(Cc4cccc(OCc5ccccn5)c4)CC3)C2=O)C(=O)N1` (stereo not drawn) [Compound A135, 3-(6-oxo-1′-(3-(pyridin-2-ylmethoxy)benzyl)-6,8-dihydro-2H,7H-spiro[furo[2,3-e]isoindole-3,4′-piperidin]-7-yl)piperidine-2,6-dione], the DC50 was less than 50 nM and the greatest degradation seen (Dmax) lay in the range of 60 to 80%.
The like results for `O=C1CCC(N2Cc3c(ccc4c3OCC43CCN(Cc4ccc(F)c5[nH]ncc45)CC3)C2=O)C(=O)N1` (stereo not drawn) [Compound A136, 3-(1′-((7-fluoro-1H-indazol-4-yl)methyl)-6-oxo-6,8-dihydro-2H,7H-spiro[furo[2,3-e]isoindole-3,4′-piperidin]-7-yl)piperidine-2,6-dione] were, in that order, less than 50 nM and 40 to 60%.
As for `O=C1CCC(N2Cc3c(ccc4c3OCC43CCN(Cc4c(F)ccc5[nH]ccc45)CC3)C2=O)C(=O)N1` (stereo not drawn) [Compound A137, 3-(1′-((5-fluoro-1H-indol-4-yl)methyl)-6-oxo-6,8-dihydro-2H,7H-spiro[furo[2,3-e]isoindole-3,4′-piperidin]-7-yl)piperidine-2,6-dione], the DC50 was less than 50 nM and the Dmax was in the range of 60 to 80%.
The like results for `O=C1CCC(N2Cc3c(ccc4c3OCC43CCN(CC4CCN(c5ccccc5)C4)CC3)C2=O)C(=O)N1` (stereo not drawn) [Compound A138, 3-(6-oxo-1′-((1-phenylpyrrolidin-3-yl)methyl)-6,8-dihydro-2H,7H-spiro[furo[2,3-e]isoindole-3,4′-piperidin]-7-yl)piperidine-2,6-dione] were, in that order, more than 500 nM and 40 to 60%.
`O=C1CCC(N2Cc3c(ccc4c3OCC43CCN(Cc4cccc(Cn5ccnc5)c4)CC3)C2=O)C(=O)N1` (stereo not drawn) [Compound A139, 3-(1′-(3-((1H-imidazol-1-yl)methyl)benzyl)-6-oxo-6,8-dihydro-2H,7H-spiro[furo[2,3-e]isoindole-3,4′-piperidin]-7-yl)piperidine-2,6-dione]: the DC50 was in the range of 200 to 500 nM and the maximal degradation (Dmax) was 60 to 80%.
`Cn1ncc2cc(F)c(CN3CCC4(CC3)COc3c4ccc4c3CN(C3CCC(=O)NC3=O)C4=O)cc21` (stereo not drawn) [Compound A140, 3-(1′-((5-fluoro-1-methyl-1H-indazol-6-yl)methyl)-6-oxo-6,8-dihydro-2H,7H-spiro[furo[2,3-e]isoindole-3,4′-piperidin]-7-yl)piperidine-2,6-dione]: the half-maximal degradation concentration (DC50) is more than 500 nM and the Dmax lay within 40 to 60%.
Consider `O=C1CCC(N2Cc3c(ccc4c3OCC43CCN(Cc4cccc5[nH]cc(Cl)c45)CC3)C2=O)C(=O)N1` (stereo not drawn) [Compound A141, 3-(1′-((3-chloro-1H-indol-4-yl)methyl)-6-oxo-6,8-dihydro-2H,7H-spiro[furo[2,3-e]isoindole-3,4′-piperidin]-7-yl)piperidine-2,6-dione], for which the DC50 is less than 50 nM and the Dmax lay within 60 to 80%.
The like results for `O=C1CCC(N2Cc3c(ccc4c3OCC43CCN(Cc4ccc5c(Cl)n[nH]c5c4)CC3)C2=O)C(=O)N1` (stereo not drawn) [Compound A142, 3-(1′-((3-chloro-1H-indazol-6-yl)methyl)-6-oxo-6,8-dihydro-2H,7H-spiro[furo[2,3-e]isoindole-3,4′-piperidin]-7-yl)piperidine-2,6-dione] were, in that order, 50 to 200 nM and 60 to 80%.
On to `Cc1ccc2[nH]ncc2c1CN1CCC2(CC1)COc1c2ccc2c1CN(C1CCC(=O)NC1=O)C2=O` (stereo not drawn) [Compound A143, 3-(1′-((5-methyl-1H-indazol-4-yl)methyl)-6-oxo-6,8-dihydro-2H,7H-spiro[furo[2,3-e]isoindole-3,4′-piperidin]-7-yl)piperidine-2,6-dione], for which the DC50 is less than 50 nM and the greatest degradation seen (Dmax) is 60 to 80%.
On to `Cn1nccc1-c1cccc(CN2CCC3(CC2)COc2c3ccc3c2CN(C2CCC(=O)NC2=O)C3=O)c1` (stereo not drawn) [Compound A144, 3-(1′-(3-(1-methyl-1H-pyrazol-5-yl)benzyl)-6-oxo-6,8-dihydro-2H,7H-spiro[furo[2,3-e]isoindole-3,4′-piperidin]-7-yl)piperidine-2,6-dione], for which the DC50 was 200 to 500 nM and the Dmax lay within 40 to 60%.
In the case of `CC(C)n1cc(-c2cccc(CN3CCC4(CC3)COc3c4ccc4c3CN(C3CCC(=O)NC3=O)C4=O)c2)cn1` (stereo not drawn) [Compound A146, 3-(1′-(3-(1-isopropyl-1H-pyrazol-4-yl)benzyl)-6-oxo-6,8-dihydro-2H,7H-spiro[furo[2,3-e]isoindole-3,4′-piperidin]-7-yl)piperidine-2,6-dione], the DC50 was less than 50 nM and the Dmax was 60 to 80%.
The like results for `O=C1CCC(N2Cc3c(ccc4c3OCC43CCN(Cc4cccc(-c5cnn(C6CCOCC6)c5)c4)CC3)C2=O)C(=O)N1` (stereo not drawn) [Compound A147, 3-(6-oxo-1′-(3-(1-(tetrahydro-2H-pyran-4-yl)-1H-pyrazol-4-yl)benzyl)-6,8-dihydro-2H,7H-spiro[furo[2,3-e]isoindole-3,4′-piperidin]-7-yl)piperidine-2,6-dione] were, in that order, less than 50 nM and 60 to 80%.
The like results for `Cn1cc(-c2ccc(CN3CCC4(CC3)COc3c4ccc4c3CN(C3CCC(=O)NC3=O)C4=O)cc2)cn1` (stereo not drawn) [Compound A148, 3-(1′-(4-(1-methyl-1H-pyrazol-4-yl)benzyl)-6-oxo-6,8-dihydro-2H,7H-spiro[furo[2,3-e]isoindole-3,4′-piperidin]-7-yl)piperidine-2,6-dione] were, in that order, less than 50 nM and 60 to 80%.
Regarding `O=C1CCC(N2Cc3c(ccc4c3OCC43CCN(Cc4ccccc4-n4ccnc4)CC3)C2=O)C(=O)N1` (stereo not drawn) [Compound A149, 3-(1′-(2-(1H-imidazol-1-yl)benzyl)-6-oxo-6,8-dihydro-2H,7H-spiro[furo[2,3-e]isoindole-3,4′-piperidin]-7-yl)piperidine-2,6-dione], the DC50 was more than 500 nM and the maximal degradation (Dmax) is less than 40%.
Turning to `O=C1CCC(N2Cc3c(ccc4c3OCC43CCN(Cc4cccc(-c5ncon5)c4)CC3)C2=O)C(=O)N1` (stereo not drawn) [Compound A150, 3-(1′-(3-(1,2,4-oxadiazol-3-yl)benzyl)-6-oxo-6,8-dihydro-2H,7H-spiro[furo[2,3-e]isoindole-3,4′-piperidin]-7-yl)piperidine-2,6-dione], the 50% degradation concentration (DC50) fell in the range of 50 to 200 nM and the greatest degradation seen (Dmax) lay within 60 to 80%.
The like results for `Cc1nnc(-c2cccc(CN3CCC4(CC3)COc3c4ccc4c3CN(C3CCC(=O)NC3=O)C4=O)c2)o1` (stereo not drawn) [Compound A151, 3-(1′-(3-(5-methyl-1,3,4-oxadiazol-2-yl)benzyl)-6-oxo-6,8-dihydro-2H,7H-spiro[furo[2,3-e]isoindole-3,4′-piperidin]-7-yl)piperidine-2,6-dione] were, in that order, 200 to 500 nM and 40 to 60%.

Usually DC50 stands for the midpoint of the concentration-degradation curve. Broadly, the Dmax is the greatest extent of degradation seen.
